Data reported in PubChem BioAssay AID192 (DTP/NCI, 2004).
Values joined by “and” are separate entries in the source; they are usually repeats but may differ in a detail not shown here. Identical values can stand only once. Toxic doses and inconclusive results are not listed. How the source made its calls: active means survival T/C of 150% or more; inactive means T/C below 125% in these data.

Tested on: BDF1 mice, B16 melanoma ip, median survival T/C
Assay: NCI In Vivo Anticancer Drug Screen. Data for tumor model B16 Melanoma (intraperitoneal) in B6D2F1 (BDF1) mice
Settings: endpoint: median survival time, higher = longer survival
In short: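 Compounds were tested in mice carrying transplantable tumors. Survival or tumor size was recorded, and each value is the treated-group measurement (T) divided by that of the vehicle-treated control group (C).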

[1] = dose: 50.0 mg/kg/injection, schedule: Q01DX009 (ip), vehicle: Klucel (hydroxypropylcellulose) (HPC)
[2] = dose: 100.0 mg/kg/injection, schedule: Q01DX009 (ip), vehicle: Klucel (hydroxypropylcellulose) (HPC)
[3] = dose: 25.0 mg/kg/injection, schedule: Q01DX009 (ip), vehicle: saline
[4] = dose: 50.0 mg/kg/injection, schedule: Q01DX009 (ip), vehicle: saline
[5] = dose: 50.0 mg/kg/injection, schedule: Q01DX009 (ip), vehicle: saline with Tween-80
[6] = dose: 100.0 mg/kg/injection, schedule: Q01DX009 (ip), vehicle: saline with Tween-80
[7] = dose: 200.0 mg/kg/injection, schedule: Q01DX009 (ip), vehicle: saline with Tween-80
[8] = dose: 200.0 mg/kg/injection, schedule: Q01DX009 (ip), vehicle: Klucel (hydroxypropylcellulose) (HPC)
[9] = dose: 400.0 mg/kg/injection, schedule: Q01DX009 (ip), vehicle: saline with Tween-80

Measured: T/C

C=C1C(=O)O[C@@H]2C[C@@H](C)[C@@H]3[C@@H](OC4OC(COC(C)=O)C(O)C(O)C4O)CC(=O)[C@@]3(C)C[C@H]12 (some centres not stated)
inactive: dose: 6.4 mg/kg/injection, schedule: Q01DX009 (ip), vehicle: saline 95 % of control | dose: 9.6 mg/kg/injection, schedule: Q01DX009 (ip), vehicle: saline 100 % of control | dose: 14.0 mg/kg/injection, schedule: Q01DX009 (ip), vehicle: saline 100 % of control | dose: 22.0 mg/kg/injection, schedule: Q01DX009 (ip), vehicle: saline 100 % of control

c1ccc([P+](c2ccccc2)(c2ccccc2)c2ccccc2)cc1
inactive: dose: 0.13 mg/kg/injection, schedule: Q01DX009 (ip), vehicle: saline 102 % of control | dose: 0.2 mg/kg/injection, schedule: Q01DX009 (ip), vehicle: saline 102 % of control | dose: 0.3 mg/kg/injection, schedule: Q01DX009 (ip), vehicle: saline 102 % of control | dose: 0.44 mg/kg/injection, schedule: Q01DX009 (ip), vehicle: saline 113 % of control | dose: 0.63 mg/kg/injection, schedule: Q04DX003 (ip), vehicle: saline 100 % of control | dose: 0.66 mg/kg/injection, schedule: Q01DX009 (ip), vehicle: saline 110 % of control | dose: 1.0 mg/kg/injection, schedule: Q01DX009 (ip), vehicle: saline 113 % of control | dose: 1.25 mg/kg/injection, schedule: Q01DX009 (ip), vehicle: saline with Tween-80 97 % of control | dose: 1.25 mg/kg/injection, schedule: Q04DX003 (ip), vehicle: saline 100 % of control | dose: 1.5 mg/kg/injection, schedule: Q01DX009 (ip), vehicle: saline 113 % of control | dose: 2.5 mg/kg/injection, schedule: Q01DX009 (ip), vehicle: saline with Tween-80 104 % of control | dose: 2.5 mg/kg/injection, schedule: Q04DX003 (ip), vehicle: saline 102 % of control | dose: 5.0 mg/kg/injection, schedule: Q01DX009 (ip), vehicle: saline with Tween-80 111 % of control | dose: 5.0 mg/kg/injection, schedule: Q04DX003 (ip), vehicle: saline 89 % of control

O=S1(=O)N2CN3CN(C2)CN1C3
inactive: [1] 103 % of control | [2] 86 % of control

c1ccc2c(CC[n+]3cccc(C4OCCO4)c3)c[nH]c2c1
inactive: dose: 12.5 mg/kg/injection, schedule: Q01DX009 (ip), vehicle: saline 94 % of control | [3] 100 % of control | [4] 100 % of control

Nc1nc(SCc2ccccc2Cl)c2ncn(C3OC(CO)C(O)C3O)c2n1 (configuration not stated)
inactive: [1] 89 % of control | [5] 88 % of control

Cc1c(N)nc(C(CC(N)=O)NCC(N)C(N)=O)nc1C(=O)NC(C(=O)NC(C)C(O)C(C)C(=O)NC(C(=O)NCCc1nc(-c2nc(C(=O)NCCC[S+](C)C)cs2)cs1)C(C)O)C(OC1OC(CO)C(O)C(O)C1OC1OC(CO)C(O)C(OC(N)=O)C1O)c1cnc[nH]1 (configuration not stated)
inactive: dose: 3.9 mg/kg/injection, schedule: Q01DX009 (ip), vehicle: saline 107 % of control | dose: 7.8 mg/kg/injection, schedule: Q01DX009 (ip), vehicle: saline 105 % of control | dose: 15.6 mg/kg/injection, schedule: Q01DX009 (ip), vehicle: saline 99 % of control

COC1=C2CC(C)CC(OC)C(O)C(C)/C=C(\C)C(OC(N)=O)C(OC)/C=C\C=C(/C)C(=O)NC(=C(/C=N/N3CCOCC3)C1=O)C2=O (configuration not stated)
inactive: dose: 12.5 mg/kg/injection, schedule: Q01DX005 (ip), vehicle: other 106 % of control | dose: 25.0 mg/kg/injection, schedule: Q01DX005 (ip), vehicle: other 97 % of control | dose: 100.0 mg/kg/injection, schedule: Q01DX005 (ip), vehicle: other 106 % of control | dose: 200.0 mg/kg/injection, schedule: Q01DX005 (ip), vehicle: other 89 % of control

CCOC(C)C(/C=N/NC(N)=S)=NNC(N)=S (configuration not stated)
inactive: [5] 90 % of control

COc1cc2c(ccc3c4cc(OC)c(OC)cc4c[n+](C)c23)cc1O
inactive: [5] 108 % of control | [6] 97 % of control | [7] 100 % of control

O=[N+]([O-])O.[NH-]C1CCCCC1[NH-].[NH-]C1CCCCC1[NH-].[OH-].[OH-].[Pt+4].[Pt+4] (configuration not stated)
inactive: dose: 0.25 mg/kg/injection, schedule: Q01DX009 (ip), vehicle: water 110 % of control and 111 % of control | dose: 0.5 mg/kg/injection, schedule: Q01DX009 (ip), vehicle: water 120 % of control and 124 % of control

Cc1ccc(OS(=O)(=O)c2ccc([N+](=O)[O-])cc2)cc1
inactive: [1] 97 % of control | [2] 97 % of control | [8] 111 % of control

Cc1cc(Cl)ccc1NC(=O)c1ccccc1C(=O)O
inactive: [2] 96 % of control | dose: 100.0 mg/kg/injection, schedule: Q04DX003 (ip), vehicle: Klucel (hydroxypropylcellulose) (HPC) 93 % of control | [8] 100 % of control | dose: 200.0 mg/kg/injection, schedule: Q04DX003 (ip), vehicle: Klucel (hydroxypropylcellulose) (HPC) 96 % of control | dose: 400.0 mg/kg/injection, schedule: Q04DX003 (ip), vehicle: Klucel (hydroxypropylcellulose) (HPC) 106 % of control

C1CC2CCC3CCCC4CCC(C1)C2C34 (configuration not stated)
inactive: dose: 3.13 mg/kg/injection, schedule: Q01DX009 (ip), vehicle: saline with Tween-80 95 % of control | dose: 6.25 mg/kg/injection, schedule: Q01DX009 (ip), vehicle: saline with Tween-80 89 % of control

O=S(=O)(O)c1ccc(Nc2ccccc2)cc1
inactive: [2] 107 % of control and 97 % of control | [8] 114 % of control and 88 % of control | dose: 400.0 mg/kg/injection, schedule: Q01DX009 (ip), vehicle: Klucel (hydroxypropylcellulose) (HPC) 107 % of control and 100 % of control

CC(=O)Oc1ccc[nH]c1=O
inactive: dose: 75.0 mg/kg/injection, schedule: Q01DX009 (ip), vehicle: saline 91 % of control and 94 % of control | dose: 150.0 mg/kg/injection, schedule: Q01DX009 (ip), vehicle: saline 91 % of control | [7] 105 % of control | dose: 200.0 mg/kg/injection, schedule: Q01DX009 (ip), vehicle: saline 90 % of control and 95 % of control | dose: 300.0 mg/kg/injection, schedule: Q01DX009 (ip), vehicle: saline 104 % of control and 105 % of control | [9] 105 % of control | dose: 600.0 mg/kg/injection, schedule: Q01DX009 (ip), vehicle: saline with Tween-80 106 % of control

C[C@@]12C(=O)OC(=O)[C@]1(C)[C@H]1CC[C@@H]2O1
inactive: dose: 0.06 mg/kg/injection, schedule: Q01DX009 (ip), vehicle: Klucel (hydroxypropylcellulose) (HPC) 89 % of control | dose: 0.12 mg/kg/injection, schedule: Q01DX009 (ip), vehicle: Klucel (hydroxypropylcellulose) (HPC) 93 % of control | dose: 0.13 mg/kg/injection, schedule: Q01DX009 (ip), vehicle: acetone 103 % of control | dose: 0.25 mg/kg/injection, schedule: Q01DX009 (ip), vehicle: Klucel (hydroxypropylcellulose) (HPC) 90 % of control | dose: 0.25 mg/kg/injection, schedule: Q01DX009 (ip), vehicle: acetone 101 % of control | dose: 0.5 mg/kg/injection, schedule: Q01DX009 (ip), vehicle: Klucel (hydroxypropylcellulose) (HPC) 102 % of control | dose: 0.5 mg/kg/injection, schedule: Q01DX009 (ip), vehicle: acetone 110 % of control | dose: 1.0 mg/kg/injection, schedule: Q01DX009 (ip), vehicle: Klucel (hydroxypropylcellulose) (HPC) 96 % of control

Nc1cc(N)cc(C(=O)c2ccccc2)c1
inactive: [6] 93 % of control | [7] 97 % of control | [9] 93 % of control

NC(=O)NC(=O)c1cccc([N+](=O)[O-])c1
inactive: [5] 104 % of control | [6] 102 % of control | [7] 102 % of control

COc1cc([C@@H]2c3cc4c(cc3[C@H](O)[C@H]3COC(=O)[C@@H]23)OCO4)cc(OC)c1OC
inactive: dose: 6.0 mg/kg/injection, schedule: Q01DX009 (ip), vehicle: Klucel (hydroxypropylcellulose) (HPC) 105 % of control | dose: 12.0 mg/kg/injection, schedule: Q01DX009 (ip), vehicle: Klucel (hydroxypropylcellulose) (HPC) 113 % of control | dose: 24.0 mg/kg/injection, schedule: Q01DX009 (ip), vehicle: Klucel (hydroxypropylcellulose) (HPC) 113 % of control

CCN(CC)CCSC(=O)C(O)(c1ccccc1)C1CCCC1 (configuration not stated)
inactive: [3] 124 % of control

CCCCCCCCCCCCCCCCCC[n+]1cccc(C(=O)N2CCOCC2)c1
inactive: dose: 2.0 mg/kg/injection, schedule: Q01DX009 (ip), vehicle: saline sonified 92 % of control | dose: 4.0 mg/kg/injection, schedule: Q01DX009 (ip), vehicle: saline sonified 100 % of control | dose: 8.0 mg/kg/injection, schedule: Q01DX009 (ip), vehicle: saline sonified 92 % of control | dose: 16.0 mg/kg/injection, schedule: Q01DX009 (ip), vehicle: saline sonified 92 % of control

CCOCCCN
inactive: [4] 122 % of control | dose: 100.0 mg/kg/injection, schedule: Q01DX009 (ip), vehicle: saline 122 % of control
